# Laboratory results: PubChem BioAssay (NCI)
#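 48-hour exposure; five concentrations; linearly interpolated endpoints. Here, GI50 denotes the concentration required for 50% inhibition of growth. TGI: total growth inhibition.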
# What was measured:
# Test in all cases: NCI-60 cell line screen, 48 h
# HT29 colon = system: HT29 colon
# RXF 393 renal = system: RXF 393 renal
# HCC-2998 colon = system: HCC-2998 colon
# M14 melanoma = system: M14 melanoma
# HCT-116 colon = system: HCT-116 colon
# SF-268 CNS = system: SF-268 CNS
# SK-MEL-2 melanoma = system: SK-MEL-2 melanoma
# A498 renal = system: A498 renal
# MDA-MB-231 breast = system: MDA-MB-231 breast
# PC-3 prostate = system: PC-3 prostate
SMILES,TGI (HT29 colon) [µM],TGI (RXF 393 renal) [µM],TGI (HCC-2998 colon) [µM],TGI (M14 melanoma) [µM],TGI (HCT-116 colon) [µM],TGI (SF-268 CNS) [µM],TGI (SK-MEL-2 melanoma) [µM],TGI (A498 renal) [µM],GI50 (HT29 colon) [nM],GI50 (RXF 393 renal) [nM],GI50 (HCC-2998 colon) [nM],GI50 (SK-MEL-2 melanoma) [nM],GI50 (M14 melanoma) [nM],GI50 (HCT-116 colon) [nM],GI50 (SF-268 CNS) [µM],GI50 (A498 renal) [nM],GI50 (MDA-MB-231 breast) [nM],TGI (MDA-MB-231 breast) [µM],TGI (PC-3 prostate) [µM],GI50 (PC-3 prostate) [nM]
CC(C)(C)NN=C1C(C)(C)C(=NNC(C)(C)C)C1(C)C,> 100,> 100,> 100,> 100,> 100,> 100,,,,,,,,,,,,,,
CSC(C1c2ccccc2N(C)C2=NC(=O)N(C)C(=O)C21Cl)S(=O)(=O)c1ccc(C)cc1 (configuration not stated),> 100,,> 100,,> 100,> 100,> 100,> 100,,,,,,,,,,,,
C=C1C[C@](OC)([C@H](O)C(=O)N[C@@H](OC)[C@@H]2C[C@@H](O)C(C)(C)[C@@H](C[C@@H](COC)OC)O2)O[C@H](C)[C@@H]1C,0.0177,0.00465,0.00285,0.0041,0.0104,0.00538,0.025,0.00288,0.865,1.59,1.01,2.3,1.78,1.68,0.00195,1.04,2.86,0.00837,,
COC1=CC(O)(CC(N)=O)c2ccccc2C1=O (configuration not stated),> 100,> 100,> 100,> 100,> 100,> 100,> 100,> 100,,,,,,,,,,,,
COc1ccc(C2=NNC(=O)OC2c2ccccc2)cc1 (configuration not stated),> 100,> 100,> 100,> 100,> 100,> 100,> 100,> 100,,,,,,,,,,,,
CC/C=C1\N=C(c2ccc(Cl)cc2)OC1=O,> 100,> 100,> 100,> 100,,> 100,> 100,> 100,,,,,,,,,,,,
C1CCN(CCC2CCCCN2)CC1 (configuration not stated),> 100,> 100,,> 100,> 100,> 100,> 100,> 100,,,,,,,,,,> 100,> 100,
COc1cc2c(cc1OC)-c1cc3cc(OC)c(OC)cc3n1CC2,56.3,,> 100,> 100,> 100,> 100,> 100,50.6,,,,,,,,,,,,
C=C/C=C(\NC(=O)C(Cl)(Cl)Cl)[Si](C)(C)C,> 100,> 100,> 100,> 100,> 100,> 100,> 100,> 100,,,,,,,,,,,,
Cc1cc(N(CCC#N)S(C)(=O)=O)ccc1C=O,> 100,> 100,> 100,> 100,> 100,> 100,> 100,> 100,,,,,,,,,,,,
N#CC(C(=O)/C(=N\Nc1nc(=S)[nH]n1N)C(C#N)c1ccc(Cl)cc1)c1ccc(Cl)cc1 (configuration not stated),> 100,> 100,> 100,> 100,> 100,> 100,> 100,> 100,,,,,,,,,,,,
CCCN(CCCC(NC(C)=O)C(=O)NCc1ccccc1)C(=O)NC (configuration not stated),> 100,> 100,> 100,> 100,> 100,> 100,> 100,> 100,,,,,,,,,,,,
OCCCN=NNc1ccc(-c2nc3ccccc3[nH]2)cc1,,18,,69.4,,32.1,48.1,,,4060,,14500,39900,,6.16,,3310,12.7,77.5,24100
CC(=O)N1CC(Nc2ccc(OC(F)(F)F)cc2)=CC1=O,28.6,5.92,53.2,6.71,23.3,> 100,95.9,24.2,482,1650,3220,520,535,472,14.4,1250,,,> 100,2990
COc1ccc(/C(=N/NC(=O)NN)C(c2ccc(OC)cc2)C2(O)CNc3c(Cl)cc(Cl)cc32)cc1 (configuration not stated),> 100,> 100,> 100,> 100,> 100,> 100,> 100,> 100,,,,,,,,,,,,
O=C(CC1(O)C(=O)Nc2ccccc21)c1ccccc1Cl (configuration not stated),> 100,> 100,,> 100,> 100,> 100,> 100,> 100,,,,,,,,,,,,
COC1(OC)CC2C=C(S(=O)(=O)c3ccccc3)C1N(Cc1ccccc1)C2=O (configuration not stated),93.7,49.8,> 100,67.1,30,> 100,,57.1,,,,,,,,,,,,
Cn1c2c(c3ccccc31)C1CCCCC1C1C(=O)NC(=O)C21 (configuration not stated),> 100,> 100,> 100,> 100,,> 100,,> 100,,,,,,,,,,,,
COc1ccc(/C(Cl)=C(\C=O)c2ccc([N+](=O)[O-])cc2)cc1OC,> 30.5,19.2,,43.5,24.9,29.4,> 77.1,> 54.4,,,,,,,,,,83.9,48.1,
Cc1ccc(NC(=O)c2cccc([N+](=O)[O-])c2O)c([N+](=O)[O-])c1,69.9,23.6,29.5,30.9,30.3,54.9,,31.5,,,,,,,,,,,,
O=C(CO)CC(=O)C(=O)Nc1nc([N+](=O)[O-])cs1,> 100,> 100,> 100,> 100,> 100,> 100,> 100,> 100,,,,,,,,,,,,
COc1cc2c(cc1OCCOS(C)(=O)=O)N=C[C@@H]1CCCN1C2=O,> 100,> 100,> 100,34.6,36.5,> 100,> 100,48.7,,,,,18700,18500,,17100,16500,39.3,,
COc1cc(C(=O)/C=C/c2cc(C(=O)c3cc(OC)c(OC)c(OC)c3)ccc2OC)ccc1N,1.56,,2.64,3.06,2.03,,3.72,5.92,422,,1270,1630,752,661,,2140,713,> 100,7.4,1800
